Measured values taken from US7507792B2, “MDA-7 proteins and methods of use thereof” (The Trustees of Columbia University In The City of New York, priority 1993, dated 2009).

Experiments:
Assay type in all cases: cell-based, human
[1] = system: p21 protein; assay: Immunoprecipitation of p21 in H0-1 cells; details: IFN-β 2000 units/ml, MEZ 10 ng/ml
Experimental: Immunoprecipitation analyses were performed as described previously (Duigou et al., 1991; Su et al., 1993; Jiang et al., 1994b). […] Cultures were starved of methionine for 1 h at 37° C. in methionine-free medium, cells were concentrated by pelleting and labeled for 1 h (p53) or 4 h (p21 and Actin) at 37° in 1 ml of the same medium with 100 μCi of [^35S] (NEN; Express ^35S). After labeling, the cells were washed twice with ice-cold phosphate-buffered saline and lysed for 1 h on ice by the addition of RIPC (20 mM Tris-base, pH 7.5, 500 mM NaCl, 0.05% Nonidet P-40, 100 μg/ml phenylmethylsulfonyl fluoride and 0.02% sodium azide). The lysate was clarified by centrifugation in an Eppendorf microfuge at 10,000×g for 10 min at 4° C. H0-1 samples containing 4×10^6 counts were incubated with 2 μg of p53 monoclonal antibody (Ab1; PAb421) (Oncogene Sciences), WAF1/CIP1 (C-19) (Santa Cruz Biotechnology) (or MDA-6 peptide-derived) rabbit polyclonal IgG or actin monoclonal antibody (Oncogene Sciences) with rocking at 4° C. for 24 h. Labeled cell lysates were also prepared from F0-1, L0-1, SH-1, WM239, FM516-SV, SW480, MeWo, human skin fibroblasts and Saos-2 cells. Samples containing 4×10^6 counts were incubated with 2 μg of the p53 monoclonal antibody Ab1 (PAb421) or Ab3 (PAb240) (Oncogene Sciences). […]

[2] = system: HL-525 cells; assay: Cell growth (cell counts); details: 6 d, 3 nM TPA, 1 μM RA, 400 nM Vit D3
Experimental: Cell counts were determined by hemocytometer chamber counting. Immunofluorescence tests for reactivity with the OKM1 antibody (Ortho Pharmaceutical Corp., Raritan, N.J.) were performed as previously described (Murao et al., 1983).

[3] = system: mda-6 (WAF1/CIP1/SDI1); assay: Induction of mda-6 (WAF1/CIP1/SDI1) expression in HL-60 cells (Northern blotting, RT-PCR); details: TPA 3 nM, Vit D3 400 nM, RA 1 μM, DMSO 1%
Experimental: HL-60 cells were originally provided by Dr. R. C. Gallo (National Cancer Institute, Bethesda, Md.) (Collins et al., 1978; Huberman & Callaham, 1979). HL-60 cells designated HL-525 were derived by cloning HL-60 cells after subculturing 102 times in the presence of increasing concentrations (up to 3 μM) of TPA at 5- to 8-day intervals (Homma et al., 1986; Mitchell et al., 1986). […] Prior to the experiments described in this study, the HL-525 cells were subcultured more than 20 times in the absence of TPA. Cells were grown in 100-mm tissue culture dishes in RPMI 1640 medium supplemented with 20% fetal bovine serum, penicillin (100 units/ml) and streptomycin (100 μg/ml) (Grand Island Biological Co., NY) at 37° C. in an atmosphere of 5% CO2 in air in a humidified incubator. The 1,25-(OH)2D3(Vit D3) and TPA were dissolved in a final concentration of 0.01% DMSO, and all-trans retinoic acid (RA) was dissolved in 0.1% DMSO in culture medium. […]
RNA was purified by centrifugation through a CsC1 cushion as described by Chirgwin et al. (1979). […] Following hybridization, the filters were washed and exposed for autoradiography (Reddy et al., 1991; Su et al., 1991; Jiang et al., 1992). mda-6 and GAPDH gene expression were also determined by reverse transcription-polymerase chain reaction (RT-PCR) as described (Adollahi et al. 1991; Lin et al., 1994). […]

Question: For `C=C(C)[C@@]12O[C@@]3(c4ccccc4)O[C@@H]1[C@@H]1[C@@H]4O[C@]4(CO)[C@@H](O)[C@]4(O)C(=O)C(C)=C[C@H]4[C@@]1(O3)[C@H](C)[C@H]2OC(=O)/C=C/C=C/c1ccccc1` [MEZ, mezerein], which “p21 mRNA and protein” value ([1]; 24 h) is on record?
Answer: Its value is “induced”.

Question: And the p21 protein level ([1]; over 48, 72, 96 h)?
Answer: Its p21 protein level is “increases”.

Question: With `CC1=C(/C=C/C(C)=C/C=C/C(C)=C/C(=O)O)C(C)(C)CCC1` [RA, trans-retinoic acid] as the molecule, how does the “reduction in growth (cell numbers)” value [2] read?
Answer: The value was 35%.

Question: Which “time of treatment at which mda-6 expression is induced” value [3] does the source give for `CCCCCCCCCCCCCC(=O)O[C@@H]1[C@@H](C)[C@@]2(O)[C@@H](C=C(CO)C[C@]3(O)C(=O)C(C)=C[C@@H]23)[C@@H]2C(C)(C)[C@]12OC(C)=O` [TPA, 12-O-tetradecanoyl-phorbol-13-acetate] here?
Answer: The value was no more than 2 h.
